{
  "source": "DBAASP",
  "assay_in_all_cases": "≥ marks a high value that may be exact or a test limit, other limits are often not marked, values filed in µg/mL are converted to µM",
  "key": {"Staphylococcus aureus": {"system": "Staphylococcus aureus"}, "Escherichia coli 363": {"system": "Escherichia coli 363"}, "[1]": {"system": "Staphylococcus aureus ATCC 43300"}, "[2]": {"system": "Salmonella enterica subsp. enterica serovar Enteritidis ATCC 13076"}, "[3]": {"system": "Staphylococcus aureus ATCC BAA-39"}, "[4]": {"system": "Staphylococcus aureus ATCC 25923"}, "[5]": {"system": "Listeria monocytogenes ATCC 19115"}, "[6]": {"system": "Klebsiella pneumoniae ATCC 13883"}, "[7]": {"system": "Escherichia coli ATCC 25922"}, "[8]": {"system": "Staphylococcus aureus 127/08"}, "[9]": {"system": "Staphylococcus epidermidis T6/19"}, "[10]": {"system": "Staphylococcus aureus T4/6"}, "[11]": {"system": "Acinetobacter baumannii NM109"}, "[12]": {"system": "Acinetobacter baumannii NM8"}, "[13]": {"system": "Pseudomonas aeruginosa ATCC 27853"}, "[14]": {"system": "Staphylococcus aureus V4180"}, "[15]": {"system": "Stenotrophomonas maltophilia U8908"}, "[16]": {"system": "Staphylococcus aureus S908"}, "[17]": {"system": "Stenotrophomonas maltophilia B5/5"}, "[18]": {"system": "Acinetobacter baumannii NM35"}, "[19]": {"system": "Stenotrophomonas maltophilia B32/4"}, "[20]": {"system": "Acinetobacter baumannii NM124"}, "[21]": {"system": "Stenotrophomonas maltophilia B6/2"}, "[22]": {"system": "Staphylococcus aureus 274/08"}, "[23]": {"system": "Staphylococcus epidermidis RP62A"}, "[24]": {"system": "Klebsiella pneumoniae ATCC 700603"}, "[25]": {"system": "Acinetobacter baumannii NM75"}, "[26]": {"system": "Staphylococcus aureus 145/08"}, "[27]": {"system": "Staphylococcus epidermidis T37/8"}, "[28]": {"system": "Enterococcus faecalis ATCC 29212"}, "[29]": {"system": "Escherichia coli ATCC 25726"}, "[30]": {"system": "Staphylococcus epidermidis RP62A/1"}, "[31]": {"system": "Candida albicans ATCC 90028"}, "[32]": {"system": "Stenotrophomonas maltophilia B32/1"}, "Escherichia coli 4530": {"system": "Escherichia coli 4530"}, "[33]": {"system": "Enterobacter cloacae 2524"}, "[34]": {"system": "Pseudomonas aeruginosa 4677"}, "[35]": {"system": "Enterobacter cloacae 6780"}, "[36]": {"system": "Klebsiella pneumoniae 913"}, "[37]": {"system": "Streptococcus pneumoniae ATCC 49619"}, "[38]": {"system": "Klebsiella pneumoniae 1625"}, "Salmonella typhimurium": {"system": "Salmonella typhimurium"}, "Escherichia coli 170": {"system": "Escherichia coli 170"}, "Acinetobacter baumannii": {"system": "Acinetobacter baumannii"}, "[39]": {"system": "Candida albicans ATCC 37092"}, "[40]": {"system": "Staphylococcus aureus ATCC 29213"}},
  "note": "Where “and” joins values, the source holds several entries; their conditions need not be identical. Equal values may be shown once.",
  "data": [
    {"molecule": "CC(C)C[C@H](NC(=O)[C@H](CCCN=C(N)N)NC(=O)[C@H](CCCN=C(N)N)NC(=O)[C@H](CC(C)C)NC(=O)[C@H](CC(C)C)NC(=O)[C@H](CCCN=C(N)N)NC(=O)[C@H](CCCN=C(N)N)NC(=O)[C@H](CC(C)C)NC(=O)[C@H](CC(C)C)NC(=O)[C@H](CCCN=C(N)N)NC(=O)[C@H](CCCN=C(N)N)NC(=O)[C@H](CC(C)C)NC(=O)[C@H](CCCN=C(N)N)NC(=O)[C@@H](N)CCCN=C(N)N)C(=O)N[C@@H](CCCN=C(N)N)C(=O)N[C@@H](CCCN=C(N)N)C(N)=O", "note": "[RRLRRLLRRLLRRLRR]", "values": [
      {"measurement": "MIC", "setting": "Staphylococcus aureus", "value": 9, "unit": "µM"},
      {"measurement": "MIC", "setting": "Escherichia coli 363", "value": "≥ 50", "unit": "µM"}
    ]},
    {"molecule": "CC[C@H](C)[C@H](NC(=O)[C@H](CCCCN)NC(=O)[C@H](CCCN=C(N)N)NC(=O)[C@H](CC(C)C)NC(=O)[C@H](Cc1ccccc1)NC(=O)[C@H](CCCN=C(N)N)NC(=O)CNC(=O)[C@H](Cc1ccccc1)NC(=O)[C@H](CCCN=C(N)N)NC(=O)CNC(=O)[C@H](CCCN=C(N)N)NC(=O)[C@H](CCC(N)=O)NC(=O)[C@@H](NC(=O)[C@@H](N)CC(C)C)C(C)C)C(=O)N[C@@H](CCCN=C(N)N)C(=O)N[C@@H](CCCN=C(N)N)C(=O)N[C@@H](Cc1ccccc1)C(=O)N[C@@H](CCCN=C(N)N)C(=O)O", "note": "[LVQRGRFGRFLRKIRRFR]", "values": [
      {"measurement": "MIC", "setting": "[1]", "value": 2, "unit": "µM"},
      {"measurement": "MIC", "setting": "[2]", "value": 2, "unit": "µM"},
      {"measurement": "MIC", "setting": "[3]", "value": "2 µM and 2.83 µM"},
      {"measurement": "MIC", "setting": "[4]", "value": 2, "unit": "µM"},
      {"measurement": "MIC", "setting": "[5]", "value": 2, "unit": "µM"},
      {"measurement": "MIC", "setting": "[6]", "value": 2, "unit": "µM"},
      {"measurement": "MIC", "setting": "[7]", "value": "4 µM and 5.66 µM"}
    ]},
    {"molecule": "CC[C@H](C)[C@H](NC(=O)[C@H](C)NC(=O)[C@H](CCCCN)NC(=O)CNC(=O)[C@@H](NC(=O)[C@H](Cc1cnc[nH]1)NC(=O)CNC(=O)[C@H](CC(C)C)NC(=O)[C@H](CC(C)C)NC(=O)[C@@H](NC(=O)CNC(=O)[C@@H](NC(=O)[C@H](CC(C)C)NC(=O)CN)C(C)C)[C@@H](C)O)[C@@H](C)CC)C(=O)N[C@@H](CC(C)C)C(=O)NCC(=O)O", "note": "[GLVGTLLGHIGKAILG]", "values": [
      {"measurement": "MIC", "setting": "[8]", "value": "≥ 125", "unit": "µM"},
      {"measurement": "MIC", "setting": "[9]", "value": "≥ 125", "unit": "µM"},
      {"measurement": "MIC", "setting": "[10]", "value": "≥ 250", "unit": "µM"},
      {"measurement": "MIC", "setting": "[11]", "value": "≥ 250", "unit": "µM"},
      {"measurement": "MIC", "setting": "[12]", "value": "≥ 250", "unit": "µM"},
      {"measurement": "MIC", "setting": "[13]", "value": "> 250", "unit": "µM"},
      {"measurement": "MIC", "setting": "[14]", "value": "≥ 250", "unit": "µM"},
      {"measurement": "MIC", "setting": "[15]", "value": "≥ 250", "unit": "µM"},
      {"measurement": "MIC", "setting": "[16]", "value": "≥ 125", "unit": "µM"},
      {"measurement": "MIC", "setting": "[17]", "value": "≥ 250", "unit": "µM"},
      {"measurement": "MIC", "setting": "[18]", "value": "≥ 250", "unit": "µM"},
      {"measurement": "MIC", "setting": "[19]", "value": "≥ 250", "unit": "µM"},
      {"measurement": "MIC", "setting": "[20]", "value": "≥ 250", "unit": "µM"},
      {"measurement": "MIC", "setting": "[4]", "value": 125, "unit": "µM"},
      {"measurement": "MIC", "setting": "[21]", "value": "≥ 250", "unit": "µM"},
      {"measurement": "MIC", "setting": "[22]", "value": "≥ 250", "unit": "µM"},
      {"measurement": "MIC", "setting": "[23]", "value": "≥ 125", "unit": "µM"},
      {"measurement": "MIC", "setting": "[24]", "value": "> 250", "unit": "µM"},
      {"measurement": "MIC", "setting": "[25]", "value": "≥ 250", "unit": "µM"},
      {"measurement": "MIC", "setting": "[26]", "value": "≥ 250", "unit": "µM"},
      {"measurement": "MIC", "setting": "[27]", "value": "≥ 250", "unit": "µM"},
      {"measurement": "MIC", "setting": "[28]", "value": 250, "unit": "µM"},
      {"measurement": "MIC", "setting": "[29]", "value": "≥ 250", "unit": "µM"},
      {"measurement": "MIC", "setting": "[30]", "value": "≥ 125", "unit": "µM"},
      {"measurement": "MIC", "setting": "[31]", "value": "≥ 250", "unit": "µM"},
      {"measurement": "MIC", "setting": "[32]", "value": "≥ 250", "unit": "µM"}
    ]},
    {"molecule": "CC[C@H](C)[C@H](NC(=O)CN)C(=O)N[C@@H](CC(C)C)C(=O)N[C@@H](CC(N)=O)C(=O)N[C@H](C(=O)N[C@H](C(=O)N[C@@H](CCCCN)C(=O)N[C@@H](CO)C(=O)N[C@H](C(=O)N[C@@H](C)C(=O)N[C@@H](CO)C(=O)N[C@@H](CCCCN)C(=O)N[C@@H](CC(C)C)C(=O)N[C@@H](CCCCN)C(=O)N[C@@H](CCCN=C(N)N)C(=O)N[C@@H](CCCCN)C(=O)N[C@@H](C)C(=O)N[C@@H](CCCCN)C(=O)O)[C@@H](C)CC)[C@@H](C)CC)[C@@H](C)O", "note": "[GILNTIKSIASKLKRKAK]", "values": [
      {"measurement": "MIC", "setting": "Escherichia coli 4530", "value": "≥ 50", "unit": "µM"},
      {"measurement": "MIC", "setting": "[33]", "value": "≥ 50", "unit": "µM"},
      {"measurement": "MIC", "setting": "[34]", "value": "≥ 50", "unit": "µM"},
      {"measurement": "MIC", "setting": "[35]", "value": 3.12, "unit": "µM"},
      {"measurement": "MIC", "setting": "[36]", "value": 6.25, "unit": "µM"},
      {"measurement": "MIC", "setting": "[37]", "value": "≥ 50", "unit": "µM"},
      {"measurement": "MIC", "setting": "[38]", "value": 3.12, "unit": "µM"},
      {"measurement": "MIC", "setting": "Salmonella typhimurium", "value": 4.38, "unit": "µM"},
      {"measurement": "MIC", "setting": "Escherichia coli 170", "value": 1.56, "unit": "µM"},
      {"measurement": "MIC", "setting": "Acinetobacter baumannii", "value": 2.21, "unit": "µM"},
      {"measurement": "MIC", "setting": "[7]", "value": 1.56, "unit": "µM"}
    ]},
    {"molecule": "CC[C@H](C)[C@H](NC(=O)[C@@H]1CCCN1C(=O)[C@H](CCCN=C(N)N)NC(=O)[C@@H]1CCCN1C(=O)CNC(=O)[C@@H]1CCCN1C(=O)[C@H](CCCN=C(N)N)NC(=O)[C@@H]1CCCN1C(=O)[C@H](Cc1ccccc1)NC(=O)[C@@H]1CCCN1C(=O)[C@H](CC(C)C)NC(=O)[C@@H]1CCCN1)C(=O)N1CCC[C@H]1C(=O)N[C@@H](CCCN=C(N)N)C(=O)N1CCC[C@H]1C(=O)O", "note": "[PLPFPRPGPRPIPRP]", "values": [
      {"measurement": "MIC", "setting": "[39]", "value": 30.5, "unit": "µM"},
      {"measurement": "MIC", "setting": "[40]", "value": "> 500", "unit": "µM"},
      {"measurement": "MIC", "setting": "[7]", "value": "> 500", "unit": "µM"}
    ]}
  ]
}
